Paper PMC11858513, “Antibiofilm Activities of Tritrpticin Analogs Against Pathogenic Pseudomonas aeruginosa PA01 Strains” (Molecules, 2025)
In brackets after ≈: the same amount, converted by molar mass. Read-outs that look alike come from different tables or passages of the source. Non-standard residues stand in square brackets, D forms with d. Residues, ends and D or L forms follow the SMILES beside them. Dap = NC[C@H](N)C(=O)O

Assays:
P. aeruginosa PAO1 GFP [1] = assay: MBIC, prevention of biofilm formation, GFP fluorescence method; type: cell-based, Pseudomonas aeruginosa
In short: (§1)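 GFP-expressing P. aeruginosa PAO1 exposed to peptides; planktonic MIC read by absorbance at 600 nm, while MBIC (prevention) and MBEC (eradication) used biofilm GFP fluorescence at 480/530 nm. Triplicate biological replicates averaged, with untreated growth and medium-only controls on each plate.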

P. aeruginosa PAO1 GFP [2] = assay: MBEC, biofilm eradication, GFP fluorescence method; type: cell-based, Pseudomonas aeruginosa
In short: as §1

P. aeruginosa PAO1 [3] = type: cell-based
In short: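 Peptides tested against P. aeruginosa PAO1 in 1× BM2 medium; planktonic growth read at 600 nm for MIC. Biofilm inhibition and eradication quantified by 0.1% crystal violet staining (15 min), ethanol release, absorbance at 595 nm, plus GFP-fluorescence and Calgary peg-device methods; triplicate means.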

P. aeruginosa PAO1 [4] = type: cell-based, Pseudomonas aeruginosa; settings: absorbance 600 nm
In short: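 PAO1 tested with peptides in 1× BM2; planktonic growth read at 600 nm, biofilm quantified by 0.1% crystal violet staining (15 min), ethanol release and 595 nm reading, using a Calgary biofilm device. Values are means of three replicates with untreated-growth and medium-only controls.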

P. aeruginosa PAO1 GFP [5] = assay: MIC against planktonic cells, absorbance at 600 nm; type: cell-based, Pseudomonas aeruginosa; settings: absorbance 600 nm
In short: as §1

[6] = system: peripheral blood mononuclear cells (PBMCs); settings: cited from earlier work
Description: (§2) Overall, our work highlights the potential of […] analogs in comparison to related Trp-rich AMPs as potent antibiofilm peptides that can interfere in biofilms produced by P. aeruginosa and potentially other Gram-negative pathogenic bacteria. New antibiofilm agents are welcome for this organism, as P. aeruginosa is well-known to have numerous mechanisms to elude the action of antibiotics during biofilm formation. Various factors can influence the suitability of AMPs to act as bactericidal and antibiofilm peptides simultaneously (for a general discussion see, for example, [74]). One ...

red blood cells = settings: cited from earlier work
Description: as §2

S. aureus GFP [7] = assay: MIC against planktonic cells, absorbance at 600 nm; type: cell-based, Staphylococcus aureus; settings: Table 4; Sa GFP, 10% TSB and 0.1% glucose; absorbance 600 nm; mean of three biological replicates
In short: (§3)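 GFP-expressing S. aureus, triplicate biological replicates. MIC on planktonic cells by absorbance at 600 nm. MBIC and MBEC from biofilm GFP fluorescence (480/530 nm), with untreated growth and media-only controls.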

S. aureus GFP [8] = assay: MBIC, GFP fluorescence method; type: cell-based, Staphylococcus aureus; settings: Table 4, Sa GFP, 10% TSB and 0.1% glucose, mean of three biological replicates
In short: as §3

S. aureus GFP [9] = assay: MBEC, GFP fluorescence method; type: cell-based, Staphylococcus aureus; settings: Table 4, Sa GFP, 10% TSB and 0.1% glucose, mean of three biological replicates
In short: as §3

S. aureus GFP [10] = type: cell-based, Staphylococcus aureus; settings: Table 4; Sa GFP; lowest concentration of peptide with no bacterial growth seen on the spot agar plate
P. aeruginosa PAO1 [11] = type: cell-based, Pseudomonas aeruginosa; settings: Table 5; PAO1, 1x BM2; biofilms on pegs, cells plated and counted; three biological replicates
Description: We note the close agreement with the MBIC and MBEC values determined by the fluorescence and CV methods, similar to what we found in our previous work for an S. aureus MRSA strain [23]. We also re-evaluated the MBEC values that are measured using the Calgary biofilm device (CBD), where biofilms form on pegs, rather than at the bottom of the 96-well plates. […] In particular, we find that the single Pro9Ala Tritrp-P9A-substituted version has better MIC, MBIC and MBEC activities than the parent peptide as well as the Tritrp-P59A analog with both prolines substituted to Ala.
Figure 5 The MBEC values for the peptides were assessed against P. aeruginosa PAO1 in the presence of 1× BM2 medium. The eradication of biofilm cells was determined for the peptides using the counting of biofilm cells formed by Pa PAO1. Three biological replicates were run for each test sample, and the mean was calculated for counted cell values. Data points with error bars indicate the standard deviation (±SD).
The methods to determine the MIC, MBIC and MBEC have been described in detail in our previous publication. The green fluorescent protein (GFP)-producing P. aeruginosa and S. aureus strains that were used in this work were also described in the earlier publication. Fluorescence detection was used as the main method to estimate the number of cells entrapped in the biofilm matrix. The methodology used for evaluation of the antibiofilm properties against an original Pseudomonas PA01 strain by crystal violet dye staining and the use of the Calgary biofilm device has been described elsewhere. The regular PA01 strain was provided by Dr. J. Harrison, Calgary. All measurements were carried out on an Eppendorf AF2200 plate reader. Every 96-well plate included controls for bacterial cell growth without peptide treatment and media alone. All measurements were carried out in triplicate, and the values in the figures represent the average and the error bars are standard deviation.

[12] = Table 3, Tritrp-Lys derivatives, BM2 medium, three replicates
[13] = Table 6, Tritrp-Lys derivatives, PAO1, BM2, 0.1% crystal violet 15 min, released with 95% ethanol, 595 nm, three replicates, unit not given
[14] = Table 6, Tritrp-Lys derivatives, PAO1, BM2, three replicates, unit not given
[15] = Table 2, BM2 medium, mean of three biological replicates
[16] = Table 5, regular PAO1 (no GFP), 1x BM2, mean of three biological replicates

In the case of CC(C)C[C@H](NC(=O)[C@H](Cc1ccccc1)NC(=O)[C@@H]1CCCN1C(=O)[C@H](Cc1c[nH]c2ccccc12)NC(=O)[C@H](Cc1c[nH]c2ccccc12)NC(=O)[C@H](Cc1c[nH]c2ccccc12)NC(=O)[C@@H]1CCCN1C(=O)[C@H](Cc1ccccc1)NC(=O)[C@H](CN)NC(=O)[C@H](CN)NC(=O)[C@@H](N)C(C)C)C(=O)N[C@@H](CN)C(=O)N[C@@H](CN)C(N)=O [Tritrp-Dap] (H-V[Dap][Dap]FPWWWPFL[Dap][Dap]-NH2; N-terminus assumed), the “MBIC at 488 and 530 nm LD50” value (P. aeruginosa PAO1 GFP [1]; [12]) is reported as 8 µmol/L, the “MBIC at 488 and 530 nm LD90” value (P. aeruginosa PAO1 GFP [1]; [12]) is reported as 16 µmol/L and the “MBEC at 488 and 530 nm LD50” value (P. aeruginosa PAO1 GFP [2]; [12]) is reported as 8 µmol/L. For the same molecule, the “MBEC at 488 and 530 nm LD90” value (P. aeruginosa PAO1 GFP [2]; [12]) was 64 µmol/L, the “MBEC (CV at 595 nm) LD90” value (P. aeruginosa PAO1 [3]; [13]) was 64 and the “MBIC (CV at 595 nm) LD90” value (P. aeruginosa PAO1 [3]; [13]) was 16. For the same molecule, the “MIC at 600 nm LD50” value (P. aeruginosa PAO1 [4]; [14]) was 8, the “MIC at 600 nm LD90” value (P. aeruginosa PAO1 [4]; [14]) was 16 and the “MIC at 600 nm LD50” value (P. aeruginosa PAO1 GFP [5]; [12]) was 8 µM (≈ 13 µg/mL). For the same molecule, the “MIC at 600 nm LD90” value (P. aeruginosa PAO1 GFP [5]; [12]) was 8 µM (≈ 13 µg/mL), the “cytotoxicity activities against PBMCs” value [6] was “no effect” and the “effect on RBCs” value (red blood cells) was “no effect”.
In the case of CC(C)C[C@H](NC(=O)[C@H](Cc1ccccc1)NC(=O)[C@H](C)NC(=O)[C@H](Cc1c[nH]c2ccccc12)NC(=O)[C@H](Cc1c[nH]c2ccccc12)NC(=O)[C@H](Cc1c[nH]c2ccccc12)NC(=O)[C@@H]1CCCN1C(=O)[C@H](Cc1ccccc1)NC(=O)[C@H](CCCNC(=N)N)NC(=O)[C@H](CCCNC(=N)N)NC(=O)[C@@H](N)C(C)C)C(=O)N[C@@H](CCCNC(=N)N)C(=O)N[C@@H](CCCNC(=N)N)C(N)=O [Tritrp-P9A] (H-VRRFPWWWAFLRR-NH2), the “MIC at 600 nm LD50” value (S. aureus GFP [7]) is reported as 0.25 µM (≈ 0.469 µg/mL), the “MIC at 600 nm LD90” value (S. aureus GFP [7]) is reported as 1 µM (≈ 1.88 µg/mL) and the “MBIC at 488 and 530 nm LD50” value (S. aureus GFP [8]) is reported as 0.25 µmol/L. For the same molecule, the “MBIC at 488 and 530 nm LD90” value (S. aureus GFP [8]) was 2 µmol/L, the “MBIC at 488 and 530 nm LD50” value (P. aeruginosa PAO1 GFP [1]; [15]) was 0.25 µmol/L and the “MBIC at 488 and 530 nm LD90” value (P. aeruginosa PAO1 GFP [1]; [15]) was 2 µmol/L. For the same molecule, the “MBEC at 488 and 530 nm LD50” value (P. aeruginosa PAO1 GFP [2]; [15]) was 4 µmol/L, the “MBEC at 488 and 530 nm LD90” value (P. aeruginosa PAO1 GFP [2]; [15]) was 8 µmol/L and the “MBEC at 488 and 530 nm LD50” value (S. aureus GFP [9]) was 0.5 µmol/L. The “MBEC at 488 and 530 nm LD90” value (S. aureus GFP [9]) was 2 µmol/L, the “MBIC (CV at 595 nm) LD50” value (P. aeruginosa PAO1 [3]; PAO1) was 1 µmol/L and the “MBRC (CV at 595 nm) LD50” value (P. aeruginosa PAO1 [3]; PAO1) was 16 µmol/L. The “MBIC (CV at 595 nm) LD90” value (P. aeruginosa PAO1 [3]; Table 5, PAO1, 1x BM2, crystal violet at 595 nm, mean of three biological replicates) was 2 µmol/L, the “MBRC (CV at 595 nm) LD90” value (P. aeruginosa PAO1 [3]; Table 5, minimum biofilm reduction concentration, PAO1, 1x BM2, crystal violet at 595 nm, mean of three biological replicates) was 32 µmol/L and the “MIC at 600 nm LD50” value (P. aeruginosa PAO1 [4]; [16]) was 2 µmol/L (≈ 3.75 µg/mL). The “MIC at 600 nm LD90” value (P. aeruginosa PAO1 [4]; [16]) was 2 µmol/L (≈ 3.75 µg/mL), the “MBC Agar Plate” value (S. aureus GFP [10]) was 2 µM (≈ 3.75 µg/mL) and the “MIC at 600 nm LD50” value (P. aeruginosa PAO1 GFP [5]; [15]) was 2 µM (≈ 3.75 µg/mL). The “MIC at 600 nm LD90” value (P. aeruginosa PAO1 GFP [5]; [15]) was 2 µM (≈ 3.75 µg/mL), the “cytotoxicity activities against PBMCs” value [6] was “quite strong” and the hemolytic activity (red blood cells) was “slightly more modest”. For the same molecule, the “MBEC from Calgary Biofilm Device (CBD) LD50” value (P. aeruginosa PAO1 [11]) was 8 µmol/L and the “MBEC from Calgary Biofilm Device (CBD) LD90” value (P. aeruginosa PAO1 [11]) was 16 µmol/L.
